One experiment relates to THP-1 cells. Kind of experiment: Thermogenesis by fluorescent polymeric thermometer (FPT), flow cytometry. The format is cell-based, human. Conditions: heme treatment for one hour. On the procedure:
In the second approach, we used fluorescent polymeric thermometer (FPT), which we synthesized in-house (see above). Parental and knockout THP-1 cells were mixed together, washed and incubated with FPT in 5% w/v glucose solution for 6 hrs. The cells were washed with PBS twice and reseeded in dishes with glass bottom that was coated with poly-lysine. The cells were imaged under Confocal Laser-Scanning Microscopy at 37° C. Alternatively, THP-1, MCF7, 293T, 7CKO, SERCA2b^−/− cells were incubated with FPT and control polymer overnight and followed with vehicle or hematin treatment for 1 hour. Then the fluorescence intensities were determined by a flow cytometer.

Experiment [1] concerns the target T1, endogenous MFSD7C and HMOX1 (Mus musculus, UniProt Q91X85).
T1 construct: Co-IP and immunoblotting analysis of endogenous MFSD7C with ATP5h, SERCA2b and HMOX1 in bone marrow-derived macrophages; endogenous in cells; host or cells: bone marrow-derived macrophages from Mfsd7c fl/fl C57BL/6 mice
Kind of experiment: Co-IP of endogenous MFSD7C and HMOX1 in bone marrow-derived macrophages. In kind it is cell-based. Conditions: heme treatment. On the procedure: (§1) NTD was incubated with heme and run on Superdex 75 gel filtration column. The flow through was measured for absorbance at 230 nm (gray), 380 nm (blue), and 415 nm (green). Absorbance intensity was normalized to maximum value. […] Heme (100 μM) absorption was set to zero. […] Wildtype (WT) and mutant (Mut) peptide sequences are shown. […] Shown are representative data from five separate experiments. […] Shown are immunoblots of MFSD7C, ATP5h, SERCA2b, and HMOX1 on whole lysates or immunoblots of MFSD7C on anti-ATP5h, anti-SERCA2b and anti-HMOX1 immunoprecipitates. Representative data from one from three experiments are shown. […] Shown are representative data from three separate experiments. WCE: whole cell extract, Sup: supernatant, Mito: 10,000 g mitochondrial fraction. […] THP-1 cells were stained with MitoTracker (green), fixed and permeabilized, and then stained with rabbit polyclonal antibody specific for the C-terminus of MFSD7C, followed with Alexa Fluor® 594-labelled goat anti-rabbit antibody (red). Nuclei were labeled using DAPI (blue). […]
(§2) Differentiation of bone marrow-derived macrophage (BMDM). […] Cells were resuspended in DMEM media containing 10% FBS, 2 mM L-glutamine, 2 mM pyruvate, non-essential amino acids (100 μM each), 0.55 mM 2-mercaptoethanol, penicillin/streptomycin), passed through a 40 μm Falcon cell strainer (VWR) to remove large aggregates, and counted. […]

The target in the next experiment is T2, NTD of human MFSD7C (Homo sapiens, UniProt Q9UPI3).
T2 construct: Plasmid harboring GST-His-tag-SUMO-NTD (amino acids 1-84); GST-His-tag-SUMO (N, cleaved yes); made in house; host or cells: Escherichia coli Lemo21(DE3)
T2 sequence (Q9UPI3 1-84): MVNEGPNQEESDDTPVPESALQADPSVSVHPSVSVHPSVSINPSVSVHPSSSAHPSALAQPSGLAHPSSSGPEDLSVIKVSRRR
In words: Isothermal titration calorimetry of NTD binding to heme.

In experiment [2] the target is T3, endogenous MFSD7C and ATP5h (Mus musculus, UniProt Q91X85).
T3 construct: Co-IP and immunoblotting analysis of endogenous MFSD7C with ATP5h, SERCA2b and HMOX1 in bone marrow-derived macrophages; endogenous in cells; host or cells: bone marrow-derived macrophages from Mfsd7c fl/fl C57BL/6 mice
Kind of experiment: Co-IP of endogenous MFSD7C and ATP5h in bone marrow-derived macrophages. The format is cell-based. Conditions: heme treatment. The method, then: as §1, §2

Another experiment deals with T4, HP motif peptide (Homo sapiens, UniProt Q9UPI3).
T4 construct: a synthetic 14-amino acid HP motif peptide; made in house; host or cells: chemical solid-phase synthesis (Koch Institute Biopolymers & Proteomics Core)
In words: Heme absorbance-shift assay with wild-type HP motif peptide. Conditions: 100 μM heme, various concentrations of HP motif peptide. In kind it is binding. On the procedure: Peptide synthesis. Wild-type HP motif peptide (HPSALAQPSGLAHP) and mutant HP motif peptide (APSALAQPSGLAAP) were synthesized using solid-phase synthesis and purified using HPLC by the Biopolymers & Proteomics Core at the Koch Institute for Integrative Cancer Research.
Heme absorbance-shift assay. Hemin was prepared fresh before each experiment. Approximately 20 mg of hemin (Sigma) was placed in a fresh tube and resuspended with 1 mL of DMSO. The hemin solution was slowly diluted while mixing with 1 mL of 2× buffer C (25 mM HEPES-NaOH pH 7.8, 10 mM NaCl), and aggregated hemin was eliminated by passing the solution through a 0.2 μm filter unit. Hemin concentration was determined by diluting the filtered solution with 1× buffer C 1:100 and using the extinction coefficient of 58,400 cm^−1M^−1 at 385 nm. For each reaction, the 200 μL reaction mix containing 100 μM hemin, 25 mM HEPES-NaOH pH 7.8, 10 mM NaCl, and various concentrations of wild-type or mutant NTD protein, was placed in a transparent 96-well plate. Absorbance intensity was measured using Tecan Infinite M200 Pro microplate reader, between 330 and 550 nm using 5 nm steps. The absorbance intensity for dissolved hemin was subtracted from absorbance intensity from hemin incubated with various concentrations of protein.

T3 sequence (Q91X85 whole entry): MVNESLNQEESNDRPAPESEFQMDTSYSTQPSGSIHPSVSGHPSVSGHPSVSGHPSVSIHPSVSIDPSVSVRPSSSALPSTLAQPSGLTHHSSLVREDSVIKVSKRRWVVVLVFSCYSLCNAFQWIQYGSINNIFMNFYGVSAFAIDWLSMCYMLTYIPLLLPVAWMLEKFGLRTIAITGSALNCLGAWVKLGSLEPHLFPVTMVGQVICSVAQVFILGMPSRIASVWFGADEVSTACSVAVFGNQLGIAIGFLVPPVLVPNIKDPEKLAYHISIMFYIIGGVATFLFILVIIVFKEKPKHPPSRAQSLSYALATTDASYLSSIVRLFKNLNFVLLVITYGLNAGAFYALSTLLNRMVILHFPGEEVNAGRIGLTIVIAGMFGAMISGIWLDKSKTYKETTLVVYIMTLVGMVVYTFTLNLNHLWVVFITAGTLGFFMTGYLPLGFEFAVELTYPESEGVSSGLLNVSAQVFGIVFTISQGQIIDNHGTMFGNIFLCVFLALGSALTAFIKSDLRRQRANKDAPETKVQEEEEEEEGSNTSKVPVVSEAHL
T1 sequence (Q91X85 whole entry): as above
T1 sequence (P14901 whole entry partner): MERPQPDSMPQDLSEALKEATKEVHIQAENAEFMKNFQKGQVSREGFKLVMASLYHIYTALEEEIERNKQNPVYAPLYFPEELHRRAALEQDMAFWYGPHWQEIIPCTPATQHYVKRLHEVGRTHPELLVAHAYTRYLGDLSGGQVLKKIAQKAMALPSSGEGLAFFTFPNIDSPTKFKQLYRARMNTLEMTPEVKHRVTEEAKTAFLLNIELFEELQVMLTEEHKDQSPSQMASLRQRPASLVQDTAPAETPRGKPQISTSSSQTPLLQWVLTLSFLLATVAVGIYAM

Consider `C=CC1=C(C)c2cc3[n-]c(cc4[n-]c(cc5nc(cc1n2)C(C)=C5C=C)c(C)c4CCC(=O)O)c(CCC(=O)O)c3C.[Fe+2]` [heme], for which the “FPT fluorescence by flow cytometry” value in the experiment on THP-1 cells is reported as “almost all cells had dramatically increased fluorescence”. The “interactions between endogenous MFSD7C and HMOX1 (co-IP)” value in experiment [1] is recorded as “enhanced”. Besides, the “heme molecules bound by the NTD” value on NTD of human MFSD7C (ITC) is on record as “three”. Moreover, the “heme molecules the NTD is capable of binding” value on NTD of human MFSD7C (overall conclusion of Example 2) was 2-3. In experiment [2], the “interactions between endogenous MFSD7C and ATP5h (co-IP)” value is recorded as “disrupted”. The “absorbance shift of heme (Soret band, Q band)” value on HP motif peptide was “concentration-dependent increase in Soret band and Q band peaks”.

Values taken from patent US20230313199A1, “TARGET FOR MODULATING BODY MASS” (Massachusetts Institute of Technology, priority 2020, published 2023).
